Reference: ChEMBL document CHEMBL3414561, “Discovery of 4'-chloromethyl-2'-deoxy-3',5'-di-O-isobutyryl-2'-fluorocytidine (ALS-8176), a first-in-class RSV polymerase inhibitor for treatment of human respiratory syncytial virus infection” (J Med Chem, 2015)
Activity calls are given as the source filed them. The calls are words filed in the database; no cut-off is given here.

How the values were obtained:
[1] = test system: Respiratory syncytial virus; assay: Antiviral activity against Respiratory syncytial virus subgenomic replicon system in 395 HeLa cells assessed as reduction in viral replication after 7 days by renilla luciferase assay; format: functional, organism-based; settings: human respiratory syncytial virus, 168 h
[2] = Cytotoxicity against human HeLa cells assessed as cell viability by CellTiter-Glo luminescent assay; format: cell-based
[3] = Inhibition of Respiratory syncytial virus RNA polymerase in crude RSV RNP complex assessed as inhibition of [33P]CMP incorporation into RNA chain
Homo sapiens [4] = organism: Homo sapiens; assay: Inhibition of human DNA-directed RNA polymerase 2 using cytomegalovirus DNA fragment as substrate; settings: concentration not given here
[5] = target: DNA polymerase beta (Homo sapiens) (UniProt P06746); assay: Inhibition of human DNA-dependent DNA polymerase beta using calf thymus DNA/[3H]dTTP as substrate by microplate scintillation reader; settings: concentration not given here
[6] = target: DNA-directed RNA polymerase, mitochondrial (Homo sapiens) (UniProt O00411); assay: Inhibition of human mitochondrial RNA polymerase assessed as 13-mer product using [33P]RNA/DNA primer/templates used by […] gel electrophoresis
Chain of DNA-directed RNA polymerase, mitochondrial (Homo sapiens) (O00411 whole entry): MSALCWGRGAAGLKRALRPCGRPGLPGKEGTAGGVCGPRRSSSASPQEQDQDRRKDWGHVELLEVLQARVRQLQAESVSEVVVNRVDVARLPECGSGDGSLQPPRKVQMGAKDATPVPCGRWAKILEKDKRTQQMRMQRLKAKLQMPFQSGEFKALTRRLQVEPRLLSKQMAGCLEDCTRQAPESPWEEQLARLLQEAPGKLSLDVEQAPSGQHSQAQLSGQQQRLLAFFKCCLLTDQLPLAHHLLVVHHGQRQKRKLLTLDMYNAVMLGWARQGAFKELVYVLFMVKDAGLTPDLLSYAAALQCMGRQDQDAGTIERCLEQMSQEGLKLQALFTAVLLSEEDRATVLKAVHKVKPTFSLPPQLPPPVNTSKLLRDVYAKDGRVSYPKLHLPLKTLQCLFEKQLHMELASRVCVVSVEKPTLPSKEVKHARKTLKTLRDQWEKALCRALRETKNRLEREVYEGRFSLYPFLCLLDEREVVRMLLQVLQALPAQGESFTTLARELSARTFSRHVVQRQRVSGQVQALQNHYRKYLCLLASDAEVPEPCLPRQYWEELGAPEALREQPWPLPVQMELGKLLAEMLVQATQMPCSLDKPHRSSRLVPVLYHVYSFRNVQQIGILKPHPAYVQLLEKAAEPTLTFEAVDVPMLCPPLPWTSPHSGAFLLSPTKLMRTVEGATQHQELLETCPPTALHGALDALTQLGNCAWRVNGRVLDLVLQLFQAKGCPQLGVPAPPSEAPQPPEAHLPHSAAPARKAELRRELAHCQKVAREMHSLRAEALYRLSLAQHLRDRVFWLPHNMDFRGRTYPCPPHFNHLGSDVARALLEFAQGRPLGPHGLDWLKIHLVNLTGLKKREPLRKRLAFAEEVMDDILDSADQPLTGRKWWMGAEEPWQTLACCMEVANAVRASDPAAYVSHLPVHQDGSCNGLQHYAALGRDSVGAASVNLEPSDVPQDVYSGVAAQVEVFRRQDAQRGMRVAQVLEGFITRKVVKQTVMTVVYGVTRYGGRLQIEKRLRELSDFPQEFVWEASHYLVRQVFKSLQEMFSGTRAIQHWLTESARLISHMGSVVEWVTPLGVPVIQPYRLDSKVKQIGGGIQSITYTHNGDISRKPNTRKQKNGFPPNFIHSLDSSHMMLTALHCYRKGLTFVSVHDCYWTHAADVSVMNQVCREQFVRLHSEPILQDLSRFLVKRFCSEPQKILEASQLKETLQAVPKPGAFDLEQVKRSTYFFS

Homo sapiens [7] = organism: Homo sapiens; assay: Inhibition of human DNA-dependent DNA polymerase alpha using calf thymus DNA/[3H]dTTP as substrate by microplate scintillation reader; settings: concentration not given here
Homo sapiens [8] = organism: Homo sapiens; assay: Inhibition of human DNA-dependent DNA polymerase gamma using calf thymus DNA/[3H]dTTP as substrate by microplate scintillation reader; settings: concentration not given here
[9] = target: DNA-directed RNA polymerase, mitochondrial (Homo sapiens) (UniProt O00411); assay: Binding affinity to human mitochondrial RNA polymerase assessed as compound incorporation using [33P]RNA/DNA primer/templates used by […] gel electrophoresis

| SMILES | EC50 [1] [µM] | IC50 [3] [µM] | CC50 [2] [µM] | other results |
| --- | --- | --- | --- | --- |
| CO[C@]1(CO)O[C@@H](n2ccc(N)nc2=O)[C@H](F)[C@@H]1O | 12.7 |  | > 100 |  |
| CC(C)C(=O)O[C@H]1[C@@H](F)[C@H](n2ccc(N)nc2=O)O[C@@]1(CO)CCl | 0.16 |  | > 88 |  |
| [N-]=[N+]=N[C@]1(CO)O[C@@H](n2ccc(N)nc2=O)[C@H](F)[C@@H]1O | 0.19 |  | > 100 |  |
| Nc1ccn([C@@H]2O[C@@](CO)(CBr)[C@@H](O)[C@H]2F)c(=O)n1 | 0.48 |  | > 100 |  |
| C[C@]1(CO)O[C@@H](n2ccc(N)nc2=O)[C@H](F)[C@@H]1O | 2.14 |  | > 100 |  |
| CCC[C@]1(CO)O[C@@H](n2ccc(N)nc2=O)[C@H](F)[C@@H]1O | 2.69 |  | > 100 |  |
| Nc1ccn([C@@H]2O[C@@](CO)(C3CC3)[C@@H](O)[C@H]2F)c(=O)n1 | 0.56 |  | > 100 |  |
| [N-]=[N+]=N[C@]1(CO)O[C@@H](n2ccc(N)nc2=O)[C@@H](O)[C@@H]1O | 0.52 |  | > 100 |  |
| C=CC[C@]1(CO)O[C@@H](n2ccc(N)nc2=O)[C@H](F)[C@@H]1O | 2.64 |  | > 100 |  |
| Nc1ccn([C@@H]2O[C@@](CO)(CCl)[C@@H](O)[C@@H]2F)c(=O)n1 | > 100 |  | > 100 |  |
| Nc1ccn([C@@H]2O[C@@](COP(=O)(O)OP(=O)(O)OP(=O)(O)O)(C3CC3)[C@@H](O)[C@H]2F)c(=O)n1 |  | 0.2 |  |  |
| [N-]=[N+]=N[C@]1(COP(=O)(O)OP(=O)(O)OP(=O)(O)O)O[C@@H](n2ccc(N)nc2=O)C(F)(F)[C@@H]1O |  | 0.3 |  | inhibition (Homo sapiens [4]): < 50%; inhibition [5]: < 50%; inhibition [6]: inactive; inhibition (Homo sapiens [7]): < 50%; inhibition (Homo sapiens [8]): < 50% |
| CSC[C@]1(CO)O[C@@H](n2ccc(N)nc2=O)[C@H](F)[C@@H]1O | 0.51 |  | > 63 |  |
| Nc1ccn([C@@H]2O[C@@](CO)(CCl)[C@@H](O)[C@H]2O)c(=O)n1 | > 100 |  | > 100 |  |
| Nc1ccn([C@@H]2O[C@H](COP(=O)(O)OP(=O)(O)OP(=O)(O)O)[C@@H](O)C2(F)F)c(=O)n1 |  |  |  | Activity [9]: Active; inhibition [6]: Active |
| [N-]=[N+]=N[C@]1(COP(=O)(O)OP(=O)(O)OP(=O)(O)O)O[C@@H](n2ccc(N)nc2=O)[C@H](F)[C@@H]1O |  | 0.1 |  | Activity [9]: Active; inhibition [6]: Active |
| Nc1ccn([C@@H]2O[C@@](CO)(CCl)[C@@H](O)C2(F)F)c(=O)n1 | 65 |  | 62 |  |
| CC(C)C(=O)OC[C@@]1(CCl)O[C@@H](n2ccc(N)nc2=O)[C@H](F)[C@@H]1O | 0.1 |  | > 90 |  |
| Nc1ccn([C@@H]2O[C@](CCl)(COP(=O)(O)OP(=O)(O)OP(=O)(O)O)[C@@H](O)[C@H]2O)c(=O)n1 |  | 1.6 |  |  |
| Nc1ccn([C@@H]2O[C@](CCl)(COP(=O)(O)OP(=O)(O)OP(=O)(O)O)[C@@H](O)[C@@H]2F)c(=O)n1 |  | 4.9 |  |  |
| Nc1ccn([C@@H]2O[C@H](COP(=O)(O)OP(=O)(O)OP(=O)(O)O)[C@@H](O)[C@H]2F)c(=O)n1 |  |  |  | Activity [9]: Active; inhibition [6]: Active |
| [N-]=[N+]=N[C@]1(COP(=O)(O)OP(=O)(O)OP(=O)(O)O)O[C@@H](n2ccc(N)nc2=O)[C@H](O)[C@@H]1O |  | 0.24 |  |  |
| Nc1ccn([C@@H]2O[C@](CCl)(COP(=O)(O)OP(=O)(O)OP(=O)(O)O)[C@@H](O)[C@H]2F)c(=O)n1 |  | 0.02 |  | inhibition (Homo sapiens [4]): < 50%; inhibition [5]: < 50%; inhibition [6]: inactive; inhibition (Homo sapiens [7]): < 50%; inhibition (Homo sapiens [8]): < 50% |
| CO[C@]1(COP(=O)(O)OP(=O)(O)OP(=O)(O)O)O[C@@H](n2ccc(N)nc2=O)[C@H](F)[C@@H]1O |  | 0.07 |  |  |
| [N-]=[N+]=N[C@]1(CO)O[C@@H](n2ccc(N)nc2=O)C(F)(F)[C@@H]1O | 0.75 |  | > 100 |  |
| [N-]=[N+]=N[C@]1(CO)O[C@@H](n2ccc(N)nc2=O)[C@H](O)[C@@H]1O [4'-AZIDOCYTIDINE] | 0.67 |  | > 80 |  |
| CCC[C@]1(COP(=O)(O)OP(=O)(O)OP(=O)(O)O)O[C@@H](n2ccc(N)nc2=O)[C@H](F)[C@@H]1O |  | 2 |  |  |
| CCCCCC(=O)OC[C@@]1(CCl)O[C@@H](n2ccc(N)nc2=O)[C@H](F)[C@@H]1OC(=O)CCCCC | 0.22 |  | > 100 |  |
| Nc1ccn([C@@H]2O[C@H](COP(=O)(O)OP(=O)(O)OP(=O)(O)O)[C@@H](O)[C@@H]2O)c(=O)n1 |  |  |  | Activity [9]: Active; inhibition [6]: Active |
| [N-]=[N+]=N[C@]1(COP(=O)(O)OP(=O)(O)OP(=O)(O)O)O[C@@H](n2ccc(N)nc2=O)[C@@H](O)[C@@H]1O |  | 0.2 |  |  |

Continued, in another order:

| EC50 [1] [µM] | IC50 [3] [µM] | SMILES | CC50 [2] [µM] | other results |
| --- | --- | --- | --- | --- |
|  | 0.15 | Nc1ccn([C@@H]2O[C@](CBr)(COP(=O)(O)OP(=O)(O)OP(=O)(O)O)[C@@H](O)[C@H]2F)c(=O)n1 |  |  |
|  | 0.15 | CC[C@]1(COP(=O)(O)OP(=O)(O)OP(=O)(O)O)O[C@@H](n2ccc(N)nc2=O)[C@H](F)[C@@H]1O |  | inhibition (Homo sapiens [4]): < 50%; inhibition [5]: < 50%; inhibition [6]: inactive; inhibition (Homo sapiens [7]): < 50%; inhibition (Homo sapiens [8]): < 50% |
| 0.22 |  | CCCCCCCC(=O)O[C@H]1[C@@H](F)[C@H](n2ccc(N)nc2=O)O[C@@]1(CO)CCl | > 70 |  |
| 0.03 |  | CCCCCCCC(=O)OC[C@@]1(CCl)O[C@@H](n2ccc(N)nc2=O)[C@H](F)[C@@H]1O | > 100 |  |
| 0.04 |  | CCC(=O)OC[C@@]1(CCl)O[C@@H](n2ccc(N)nc2=O)[C@H](F)[C@@H]1OC(=O)CC | > 100 |  |
| 1.12 |  | C#C[C@]1(CO)O[C@@H](n2ccc(N)nc2=O)[C@H](F)[C@@H]1O | > 100 |  |
| 0.27 |  | CCCCCCCCCCCC(=O)O[C@H]1[C@@H](F)[C@H](n2ccc(N)nc2=O)O[C@@]1(CO)CCl | > 89 |  |
|  | 0.13 | C#C[C@]1(COP(=O)(O)OP(=O)(O)OP(=O)(O)O)O[C@@H](n2ccc(N)nc2=O)[C@H](F)[C@@H]1O |  |  |
| 1.91 |  | C=C[C@]1(CO)O[C@@H](n2ccc(N)nc2=O)[C@H](F)[C@@H]1O | > 100 |  |
| 0.28 |  | CCCCCCCC(=O)OC[C@@]1(CCl)O[C@@H](n2ccc(N)nc2=O)[C@H](F)[C@@H]1OC(=O)CCCCCCC | > 66 |  |
| 0.04 |  | CC(C)[C@H](N)C(=O)OC[C@@]1(CCl)O[C@@H](n2ccc(N)nc2=O)[C@H](F)[C@@H]1O | > 100 |  |
|  | 0.09 | C=CC[C@]1(COP(=O)(O)OP(=O)(O)OP(=O)(O)O)O[C@@H](n2ccc(N)nc2=O)[C@H](F)[C@@H]1O |  |  |
| 0.13 |  | CCCCC(=O)OC[C@@]1(CCl)O[C@@H](n2ccc(N)nc2=O)[C@H](F)[C@@H]1OC(=O)CCCC | > 100 |  |
|  | 2.7 | CSC[C@]1(COP(=O)(O)OP(=O)(O)OP(=O)(O)O)O[C@@H](n2ccc(N)nc2=O)[C@H](F)[C@@H]1O |  |  |
|  | 0.09 | C=C[C@]1(COP(=O)(O)OP(=O)(O)OP(=O)(O)O)O[C@@H](n2ccc(N)nc2=O)[C@H](F)[C@@H]1O |  |  |
| > 100 |  | Nc1ccn([C@@H]2O[C@@](CO)(CCl)[C@@H](O)[C@@H]2O)c(=O)n1 | > 100 |  |
|  | 0.01 | C[C@]1(COP(=O)(O)OP(=O)(O)OP(=O)(O)O)O[C@@H](n2ccc(N)nc2=O)[C@H](F)[C@@H]1O |  |  |
